Measured values published in patent US5654398A, “Compositions and methods for inhibiting replication of human immunodeficiency virus-1” (priority 1993, dated 1997).
“Also recorded” adds a separate entry of the source. Residues, ends and D or L forms follow the SMILES beside them.

Legend:
[1] = biological target: wild-type RRE IIB RNA; type: binding, HIV-1; settings: for Kd: read-out: Ksp (apparent Kd, wild-type IIB RNA)
Experimental: (§1) Gel shift assays were performed at 4° C. unless described otherwise. Peptide and RNA were incubated together for 15 min on ice in 10 μl binding reactions containing 10 mM HEPES-KOH, pH 7.5, 100 mM KCl, 1 mM MgCl2, 0.5 mM EDTA, 1 mM dithithreitol, 50 μg/ml E. coli tRNA, and 10% glycerol. To determine relative binding affinities, 0.5 nM radiolabeled IIB RNA (or IIB mutant) was titrated with peptide. Peptide-RNA complexes were resolved in 10% polyacrylamide, 0.5x TBE gels that had been prerun for 1 hr and allowed to cool to 4° C. Gels were electrophoresed at 220 V for 3 hr at 4° C., dried, and autoradiographed.
(§2) FIG. 3C. Relationship between helix content of the Rev34-50 peptides and RNA-binding specificity. Apparent Kd s (the peptide concentration at which 50% of the RNA was shifted) were determined for wild-type (specific; Ksp) and mutant (nonspecific; Knonsp) IIB RNAs from the date in FIGS. 3A and 3B. Specificity, the ratio of specific to nonspecific apparent association constants (Ka s) is plotted against the helix content for each peptide, determined from the CD ellipticity at 222 nm (Chen et al., (1974) "Determination of the Helix and Beta Form of Proteins in Aqueous Solution by Circular Dichroism" Biochemistry 13:3350-3359 ) Peptide I: helix=0.1%; ksp =2000 nM; Knonsp =3000 nM. Peptide II: helix=3.9%; Ksp =300 nM; Knonsp =2000 nM. Peptide III: helix=10.9%; Ksp =100 nM; Knonsp =2000 nM. Peptide IV: helix=27.9%; Ksp =40 nM; Knonsp =2000 nM. Peptide V: helix=51.2%; Ksp =20 nM; Knonsp 1500 nM.

[2] = biological target: mutant (C46-G74) IIB RNA; type: binding, HIV-1; settings: for Kd: read-out: Knonsp (apparent Kd, mutant IIB RNA)
Experimental: as §1, §2

[3] = Circular dichroism, α-helix content; type: physicochemical; settings: for % Helix (α-helix content): from CD ellipticity at 222 nm, 4° C., pH 7.5
Experimental: CD spectra were measured using an Aviv model 62DS spectropolarimeter. Samples were prepared in 10 mM potassium phosphate buffer, pH 7.5 and 100 mM KF, and temperature was maintained at 4° C. unless described otherwise. Spectra were recorded from 320 nm to 190 nm using a 1 cm pathlength cuvette and the signal was averaged for 10 sec. Scans were repeated five times and averaged. Peptide concentrations were typically 5-20 μM and ellipticity was calculated per amino acid residue.
as §2

[4] = system: IIB RNA mutant A71 (G71 to A71); experiment: RNA-binding gel shift assay, A71 mutant IIB RNA; design: species or system HIV-1; settings: in the presence of tRNA
Experimental: as §1
(§3) FIG. 1B. Peptide binding to IIB mutants. Binding reactions were carried out in the presence of tRNA at the peptide concentrations indicated, and free RNA and peptide-RNA complexes were resolved by the gel shift assay. Each pair of lanes corresponds to RNA alone and peptide-RNA binding reactions. […]. The wild-type lanes on both sides of the gel are identical. The slower mobility of the A71 mutant in the absence of peptide may indicate that its unbound conformation is different than wild-type IIB. […] This phenomenon has been seen with other mutant RNAs and with mutant Rev peptides, and has been interpreted as differences in RNA conformation between specific and nonspecific complexes (Kjems et al. (1992), supra).

[5] = system: IIB RNA mutant A47 (G47 to A47); experiment: RNA-binding gel shift assay, A47 mutant IIB RNA; design: species or system HIV-1; settings: in the presence of tRNA
Experimental: as §1, §3

| SMILES | Kd [1] | Kd [2] | % Helix (α-helix content) [3] | % Helix (α-helix content) ([3]; listed as N-Rev34-50 --am) | specific RNA binding / discrimination between wild-type and mutant IIB RNAs (in words) [1] | α-helix content by CD (in words) ([3]; CD spectra) | Reduction of affinity compared to wild-type IIB ([2]; C46-G74 base pair mutant, in the presence of tRNA) | Reduction of affinity compared to wild-type IIB [4] | Reduction of affinity compared to wild-type IIB [5] |
| --- | --- | --- | --- | --- | --- | --- | --- | --- | --- |
| C[C@H](NC(=O)[C@H](CCC(N)=O)NC(=O)[C@H](CCCNC(=N)N)NC(=O)[C@@H](N)[C@@H](C)O)C(=O)N[C@@H](CCCNC(=N)N)C(=O)N[C@@H](CCCNC(=N)N)C(=O)N[C@@H](CC(N)=O)C(=O)N[C@@H](CCCNC(=N)N)C(=O)N[C@@H](CCCNC(=N)N)C(=O)N[C@@H](CCCNC(=N)N)C(=O)N[C@@H](CCCNC(=N)N)C(=O)N[C@@H](Cc1c[nH]c2ccccc12)C(=O)N[C@@H](CCCNC(=N)N)C(=O)N[C@@H](CCC(=O)O)C(=O)N[C@@H](CCCNC(=N)N)C(=O)N[C@@H](CCC(N)=O)C(=O)N[C@@H](CCCNC(=N)N)C(N)=O [Peptide II, N-Rev34-50 --am] (H-TRQARRNRRRRWRERQR-NH2) | 300 nM | 2000 nM | 3.9% | approximately 4% |  |  |  |  |  |
| C[C@H](NC(=O)[C@H](CCC(N)=O)NC(=O)[C@H](CCCNC(=N)N)NC(=O)[C@@H](N)[C@@H](C)O)C(=O)N[C@@H](CCCNC(=N)N)C(=O)N[C@@H](CCCNC(=N)N)C(=O)N[C@@H](CC(N)=O)C(=O)N[C@@H](CCCNC(=N)N)C(=O)N[C@@H](CCCNC(=N)N)C(=O)N[C@@H](CCCNC(=N)N)C(=O)N[C@@H](CCCNC(=N)N)C(=O)N[C@@H](Cc1c[nH]c2ccccc12)C(=O)N[C@@H](CCCNC(=N)N)C(=O)N[C@@H](CCC(=O)O)C(=O)N[C@@H](CCCNC(=N)N)C(=O)N[C@@H](CCC(N)=O)C(=O)N[C@@H](CCCNC(=N)N)C(=O)O [Peptide I] (H-TRQARRNRRRRWRERQR-OH) | 2000 nM | 3000 nM | 0.1% |  | binds only slightly better to wild-type IIB than to the mutant RNA; also recorded: essentially unable to discriminate between wild-type and mutant RNAs | mostly unstructured |  |  |  |
| C[C@H](NC(=O)[C@H](CCC(N)=O)NC(=O)[C@H](CCCNC(=N)N)NC(=O)[C@@H](N)[C@@H](C)O)C(=O)N[C@@H](CCCNC(=N)N)C(=O)N[C@@H](CCCNC(=N)N)C(=O)N[C@@H](CC(N)=O)C(=O)N[C@@H](CCCNC(=N)N)C(=O)N[C@@H](CCCNC(=N)N)C(=O)N[C@@H](CCCNC(=N)N)C(=O)N[C@@H](CCCNC(=N)N)C(=O)N[C@@H](Cc1c[nH]c2ccccc12)C(=O)N[C@@H](CCCNC(=N)N)C(=O)N[C@@H](CCC(=O)O)C(=O)N[C@@H](CCCNC(=N)N)C(=O)N[C@@H](CCC(N)=O)C(=O)N[C@@H](CCCNC(=N)N)C(N)=O [Rev34-50] (H-TRQARRNRRRRWRERQR-NH2) |  |  |  |  |  |  | about 10 fold | about 10 fold | about 10 fold |
| CC(=O)N[C@H](C(=O)N[C@@H](CCCNC(=N)N)C(=O)N[C@@H](CCC(N)=O)C(=O)N[C@@H](C)C(=O)N[C@@H](CCCNC(=N)N)C(=O)N[C@@H](CCCNC(=N)N)C(=O)N[C@@H](CC(N)=O)C(=O)N[C@@H](CCCNC(=N)N)C(=O)N[C@@H](CCCNC(=N)N)C(=O)N[C@@H](CCCNC(=N)N)C(=O)N[C@@H](CCCNC(=N)N)C(=O)N[C@@H](Cc1c[nH]c2ccccc12)C(=O)N[C@@H](CCCNC(=N)N)C(=O)N[C@@H](CCC(=O)O)C(=O)N[C@@H](CCCNC(=N)N)C(=O)N[C@@H](CCC(N)=O)C(=O)N[C@@H](CCCNC(=N)N)C(N)=O)[C@@H](C)O [Peptide III] (Ac-TRQARRNRRRRWRERQR-NH2) | 100 nM | 2000 nM | 10.9% |  |  |  |  |  |  |
